Laboratory results from US6906006B1, “N-arly-substituted nitrogen-containing heterocycles, processes and novel intermediates for their preparation, and their use as herbicides and plant growth regulators” (Bayer Aktiengesellschaft, priority 1988, dated 2005).

Tests used:
[1] = system: test plants; test: Post-emergence test (Use Example B, formula (I) compounds); format: in vivo; conditions: sprayed in 2,000 l of water/ha, damage rated after three weeks, comparison substance 1-(2-chloro-4-trifluoromethylphenyl)-5-methyl-4-nitropyrazole
Description: • Solvents 5 parts by weight of acetone • Emulsifier: 1 part by weight of alkylaryl polyglycol ether
(§1) To produce a suitable preparation of active compound, 1 part by weight of active compound is mixed with the stated amount of solvent, the stated amount of emulsifier is added and the concentrate is diluted with water to the desired concentration.
Test plants which have a height of 5-15 cm are sprayed with the preparation of the active compound in such a way as to apply the particular amounts of active compound desired per unit area. The concentration of the spray liquor is so chosen that the particular amounts of active compound desired are applied in 2,000 l of water/ha. After three weeks, the degree of damage to the plants is rated in % damage in comparison to the development of the untreated control. The figures denote: • 0%=no action (like untreated control) • 100%=total destruction

[2] = system: test plants; test: Pre-emergence test (Use Example A, formula (I) compounds); format: in vivo; conditions: damage rated after three weeks, comparison substance 1-(2-chloro-4-trifluoromethylphenyl)-5-methyl-4-nitropyrazole
Description: • Solvent: 5 parts by weight of acetone • Emulsifier: 1 part by weight of alkylaryl polyglycol ether
as §1
Seeds of the test plants are sown in normal soil and, after 24 hours, watered with the preparation of active compound. It is expedient to keep constant the amount of water per unit area. The concentration of the active compound in the preparation is of no importance, only the amount of active compound applied per unit area being decisive. After three weeks, the degree of damage to the plants is rated in % damage in comparison to the development of the untreated control. The figures denote: • 0%=no action (like untreated control) • 100% total destruction

Cc1c2c(nn1-c1cc(SC(C)C)c(C#N)cc1F)CCCC2 [Example 9, 4-(5-methyl-3,4-tetramethylene-1-pyrazolyl)-5-fluoro-2-isopropylthiobenzonitrile]
effectiveness and crop plant selectivity compared with the prior art [1]: clearly superior effectiveness as well as crop plant selectivity

CCOCCOc1cc(-n2nc3c(c2C)CCCC3)c(F)cc1C#N [Example 10]
effectiveness and crop plant selectivity compared with the prior art [2]: clearly superior to the prior art
effectiveness and crop plant selectivity compared with the prior art [1]: clearly superior effectiveness as well as crop plant selectivity
